Measurements from the NIST ThermoML archive (doi:10.1021/je060271a).
Several values for one entry are separate records, joined by “and”; a condition that tells them apart may be missing. Identical values can stand only once.

Conditions: 303.15 K, Liquid, Vibrating tube method

CCCCCC(=O)OCC(COC(=O)CCCCC)(COC(=O)CCCCC)COC(=O)CCCCC [pentaerythritol tetrahexanoate]
Conditions | mass density
195.8 kPa | 988.6 kg/m3 and 988.4 kg/m3
196 kPa | 988.5 kg/m3
196.2 kPa | 988.3 kg/m3
196.3 kPa | 988.5 kg/m3
196.5 kPa | 988.5 kg/m3 and 988.6 kg/m3
198.2 kPa | 988.4 kg/m3 and 988.5 kg/m3
198.4 kPa | 988.4 kg/m3
198.8 kPa | 988.4 kg/m3 and 988.5 kg/m3
198.9 kPa | 988.5 kg/m3
199.1 kPa | 988.5 kg/m3
199.3 kPa | 988.4 kg/m3
199.6 kPa | 988.5 kg/m3 and 988.6 kg/m3
200.9 kPa | 988.4 kg/m3
202.8 kPa | 988.4 kg/m3
203.1 kPa | 988.5 kg/m3
203.3 kPa | 988.5 kg/m3
203.5 kPa | 988.4 kg/m3
203.8 kPa | 988.4 kg/m3
204 kPa | 988.5 kg/m3
204.5 kPa | 988.4 kg/m3
204.7 kPa | 988.4 kg/m3
204.9 kPa | 988.5 kg/m3 and 988.6 kg/m3
205 kPa | 988.5 kg/m3
205.4 kPa | 988.5 kg/m3 and 988.4 kg/m3
205.7 kPa | 988.5 kg/m3 and 988.6 kg/m3
206.1 kPa | 988.5 kg/m3
206.2 kPa | 988.5 kg/m3 and 988.4 kg/m3
206.4 kPa | 988.5 kg/m3
206.8 kPa | 988.4 kg/m3
206.9 kPa | 988.3 kg/m3
208.3 kPa | 988.4 kg/m3
208.7 kPa | 988.4 kg/m3
210.1 kPa | 988.5 kg/m3 and 988.4 kg/m3
210.6 kPa | 988.5 kg/m3
210.9 kPa | 988.3 kg/m3 and 988.4 kg/m3
211.1 kPa | 988.4 kg/m3 and 988.5 kg/m3 and 988.3 kg/m3
211.8 kPa | 988.5 kg/m3 and 988.6 kg/m3
212 kPa | 988.5 kg/m3
212.3 kPa | 988.4 kg/m3
213.2 kPa | 988.4 kg/m3
213.6 kPa | 988.5 kg/m3
213.7 kPa | 988.6 kg/m3
214.1 kPa | 988.5 kg/m3
214.2 kPa | 988.5 kg/m3
214.4 kPa | 988.5 kg/m3
214.6 kPa | 988.6 kg/m3
214.8 kPa | 988.5 kg/m3
215.1 kPa | 988.4 kg/m3
215.5 kPa | 988.5 kg/m3
215.6 kPa | 988.4 kg/m3 and 988.5 kg/m3
216 kPa | 988.5 kg/m3
216.2 kPa | 988.5 kg/m3
216.5 kPa | 988.5 kg/m3
216.7 kPa | 988.6 kg/m3
216.9 kPa | 988.5 kg/m3
217 kPa | 988.5 kg/m3
217.2 kPa | 988.4 kg/m3
217.7 kPa | 988.4 kg/m3
218.1 kPa | 988.5 kg/m3
218.2 kPa | 988.5 kg/m3
218.6 kPa | 988.5 kg/m3
219.1 kPa | 988.5 kg/m3
219.4 kPa | 988.6 kg/m3
219.6 kPa | 988.5 kg/m3
219.8 kPa | 988.4 kg/m3
220 kPa | 988.4 kg/m3
220.2 kPa | 988.4 kg/m3
220.3 kPa | 988.4 kg/m3
224.1 kPa | 988.4 kg/m3
224.8 kPa | 988.5 kg/m3
225.2 kPa | 988.4 kg/m3
225.4 kPa | 988.5 kg/m3
228.3 kPa | 988.6 kg/m3
